Earlier results, collected in US20120315265A1, “HYDROGEL-FORMING POLYMER, AND PREPARATION PROCESS AND USES THEREOF” (CHANG GUNG UNIVERSITY, priority 2011, published 2012).

Assays:
[1] = in vivo
[2] = in the anterior chamber

## CC[C@@H]1C(=O)OC[C@@H]1Cc1cncn1C [pilocarpine]
[1]
  duration of pupillary constriction: up to 8 hour
[2]
  effective therapeutic dose for IOP reduction: 10 to 33 µg/mL
